Experimental data as given in patent US9549932B2, “2-(morpholin-4-yl)-1,7-naphthyridines” (BAYER PHARMA AKTIENGESELLSCHAFT, priority 2014, dated 2017).
Like-named read-outs stand apart in the source and are kept apart here.

What was measured:
[1] = target: full-length human ATR protein (Homo sapiens (Human), UniProt Q13535); test: Binding assay ATR (TR-FRET tracer displacement); conditions: TR-FRET
Procedure, shortened: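 Full-length human GST-ATR co-purified with ATRIP, pre-complexed 30 min at 22 °C with anti-GST-Tb antibody, then pre-bound with compound 10 min. Tracer A or B added (2 µl of 100 nM solution), 30 min at 22 °C.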

NCI-H460 cells = test: Proliferation assay NCI-H460 (crystal violet); conditions: read-out: Inhibition of NCI-H460 cell proliferation, 4 days incubation
Method: (§1) After 24 hours, the cells of one plate (zero plate) were dyed with crystal violet (see below), whereas the medium of the other plates was replaced with fresh culture medium (200 μl) to which the test substances were added in various concentrations (0 μM, and also in the range of 0.001-10 μM; the final concentration of the solvent dimethyl sulphoxide was 0.1 or 0.5%). The cells were incubated for 4 days in the presence of the test substances. […] After washing the fixed cells three times with water, the plates were dried at room temperature. The cells were stained by adding 100 μl/measurement point of a 0.1% strength crystal violet solution (pH adjusted to pH 3 by adding acetic acid). After washing the cells three times with water, the plates were dried at room temperature. The dye was dissolved by adding 100 μl/measurement point of a 10% strength acetic acid solution. […] The percentage change in cell growth was calculated by normalizing the measured values to the absorbance values of the zero plate (=0%) and the absorbance of the untreated (0 μM) cells (=100%). The IC50 values were determined by means of a four parameter fit.

HeLa cells = test: Proliferation assay HeLa (crystal violet)
Method: as §1

Caco-2 cells = test: Proliferation assay Caco-2 (crystal violet); type: cell-based, human; conditions: 4 days incubation, read-out: Inhibition of Caco-2 cell proliferation
Method: as §1

DU145 cells = test: Proliferation assay DU145 (crystal violet); conditions: read-out: Inhibition of DU145 cell proliferation, 4 days incubation
Method: as §1

B16F10 cells = test: Proliferation assay B16F10 (crystal violet); conditions: read-out: Inhibition of B16F10 cell proliferation, 4 days incubation
Method: as §1

[2] = tracer A, read-out: ATR binding (tracer A) IC50
[3] = tracer B, read-out: ATR binding (tracer B) IC50

Sequence of full-length human ATR protein (Q13535 other isoform, or with tags, fused parts or gaps): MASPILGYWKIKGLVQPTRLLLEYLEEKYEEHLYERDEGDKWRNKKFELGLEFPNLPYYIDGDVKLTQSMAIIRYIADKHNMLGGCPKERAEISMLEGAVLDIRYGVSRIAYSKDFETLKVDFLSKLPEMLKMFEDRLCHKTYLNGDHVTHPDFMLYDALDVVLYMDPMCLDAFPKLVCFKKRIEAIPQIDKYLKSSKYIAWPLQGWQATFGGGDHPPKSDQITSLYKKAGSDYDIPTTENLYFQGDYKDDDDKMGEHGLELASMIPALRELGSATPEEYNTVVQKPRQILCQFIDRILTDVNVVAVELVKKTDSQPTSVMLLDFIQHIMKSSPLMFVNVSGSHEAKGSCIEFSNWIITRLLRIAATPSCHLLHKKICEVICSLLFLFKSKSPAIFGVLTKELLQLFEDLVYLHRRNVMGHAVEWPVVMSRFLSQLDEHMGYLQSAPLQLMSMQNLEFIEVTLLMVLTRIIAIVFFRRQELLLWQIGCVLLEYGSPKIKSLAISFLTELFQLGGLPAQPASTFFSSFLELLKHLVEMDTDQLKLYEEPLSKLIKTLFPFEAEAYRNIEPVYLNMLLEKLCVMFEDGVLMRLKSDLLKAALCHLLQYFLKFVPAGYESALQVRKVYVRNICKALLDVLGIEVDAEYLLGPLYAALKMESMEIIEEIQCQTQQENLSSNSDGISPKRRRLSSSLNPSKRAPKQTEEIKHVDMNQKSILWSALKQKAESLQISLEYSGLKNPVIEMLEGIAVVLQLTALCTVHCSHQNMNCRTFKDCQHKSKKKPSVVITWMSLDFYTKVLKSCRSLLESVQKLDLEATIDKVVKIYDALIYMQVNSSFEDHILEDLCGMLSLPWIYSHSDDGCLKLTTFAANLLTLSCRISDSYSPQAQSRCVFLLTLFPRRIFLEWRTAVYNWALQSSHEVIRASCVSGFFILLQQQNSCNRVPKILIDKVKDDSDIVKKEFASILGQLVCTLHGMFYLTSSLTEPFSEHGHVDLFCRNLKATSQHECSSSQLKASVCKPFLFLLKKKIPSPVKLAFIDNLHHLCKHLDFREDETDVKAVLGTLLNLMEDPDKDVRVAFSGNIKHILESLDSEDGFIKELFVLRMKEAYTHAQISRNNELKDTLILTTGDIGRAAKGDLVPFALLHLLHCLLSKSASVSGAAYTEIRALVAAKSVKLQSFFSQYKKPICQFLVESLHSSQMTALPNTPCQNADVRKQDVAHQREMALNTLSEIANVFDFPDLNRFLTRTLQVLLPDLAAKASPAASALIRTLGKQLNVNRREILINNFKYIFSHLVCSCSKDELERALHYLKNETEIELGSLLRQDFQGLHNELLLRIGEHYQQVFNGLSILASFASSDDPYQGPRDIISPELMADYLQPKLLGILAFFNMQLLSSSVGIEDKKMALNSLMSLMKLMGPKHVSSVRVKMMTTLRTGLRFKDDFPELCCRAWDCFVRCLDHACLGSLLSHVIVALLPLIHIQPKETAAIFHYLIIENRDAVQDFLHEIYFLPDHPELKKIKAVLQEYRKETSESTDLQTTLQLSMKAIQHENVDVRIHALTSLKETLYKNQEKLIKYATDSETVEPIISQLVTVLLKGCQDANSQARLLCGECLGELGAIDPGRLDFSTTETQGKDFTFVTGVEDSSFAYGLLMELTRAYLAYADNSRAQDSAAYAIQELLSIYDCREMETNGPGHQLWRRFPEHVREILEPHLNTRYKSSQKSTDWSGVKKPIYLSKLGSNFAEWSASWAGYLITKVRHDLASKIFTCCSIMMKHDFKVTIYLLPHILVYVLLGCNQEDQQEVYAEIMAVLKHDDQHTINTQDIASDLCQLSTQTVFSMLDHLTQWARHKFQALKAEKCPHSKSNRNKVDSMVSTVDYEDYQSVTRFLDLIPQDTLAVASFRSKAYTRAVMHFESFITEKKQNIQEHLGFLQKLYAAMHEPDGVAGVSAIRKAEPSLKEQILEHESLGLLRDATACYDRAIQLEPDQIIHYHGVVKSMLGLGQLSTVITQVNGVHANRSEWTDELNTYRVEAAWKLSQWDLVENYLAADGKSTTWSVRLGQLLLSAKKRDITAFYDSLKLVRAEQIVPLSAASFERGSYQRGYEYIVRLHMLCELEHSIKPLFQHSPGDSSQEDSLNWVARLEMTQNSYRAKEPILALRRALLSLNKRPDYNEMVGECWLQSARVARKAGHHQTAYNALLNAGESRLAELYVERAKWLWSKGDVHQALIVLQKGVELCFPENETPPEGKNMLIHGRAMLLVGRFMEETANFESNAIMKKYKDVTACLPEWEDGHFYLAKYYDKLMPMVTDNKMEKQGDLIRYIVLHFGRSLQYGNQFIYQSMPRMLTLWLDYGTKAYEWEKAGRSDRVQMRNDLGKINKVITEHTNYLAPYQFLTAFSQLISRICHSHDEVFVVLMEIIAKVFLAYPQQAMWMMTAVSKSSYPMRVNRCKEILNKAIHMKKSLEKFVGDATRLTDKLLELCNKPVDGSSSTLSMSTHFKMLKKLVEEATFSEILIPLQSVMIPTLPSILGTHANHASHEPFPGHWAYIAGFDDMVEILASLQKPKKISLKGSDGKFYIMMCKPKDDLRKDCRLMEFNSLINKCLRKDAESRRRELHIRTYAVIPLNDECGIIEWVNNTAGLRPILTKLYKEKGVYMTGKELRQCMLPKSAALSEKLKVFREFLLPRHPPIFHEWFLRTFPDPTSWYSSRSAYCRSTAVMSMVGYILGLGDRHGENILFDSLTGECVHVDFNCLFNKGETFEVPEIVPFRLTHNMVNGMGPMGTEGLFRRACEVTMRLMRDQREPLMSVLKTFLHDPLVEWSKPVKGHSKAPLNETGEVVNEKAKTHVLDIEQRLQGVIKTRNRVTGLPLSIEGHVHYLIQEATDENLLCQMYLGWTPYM
Sequence of full-length human ATR protein (Q8WXE1 other isoform, or with tags, fused parts or gaps partner): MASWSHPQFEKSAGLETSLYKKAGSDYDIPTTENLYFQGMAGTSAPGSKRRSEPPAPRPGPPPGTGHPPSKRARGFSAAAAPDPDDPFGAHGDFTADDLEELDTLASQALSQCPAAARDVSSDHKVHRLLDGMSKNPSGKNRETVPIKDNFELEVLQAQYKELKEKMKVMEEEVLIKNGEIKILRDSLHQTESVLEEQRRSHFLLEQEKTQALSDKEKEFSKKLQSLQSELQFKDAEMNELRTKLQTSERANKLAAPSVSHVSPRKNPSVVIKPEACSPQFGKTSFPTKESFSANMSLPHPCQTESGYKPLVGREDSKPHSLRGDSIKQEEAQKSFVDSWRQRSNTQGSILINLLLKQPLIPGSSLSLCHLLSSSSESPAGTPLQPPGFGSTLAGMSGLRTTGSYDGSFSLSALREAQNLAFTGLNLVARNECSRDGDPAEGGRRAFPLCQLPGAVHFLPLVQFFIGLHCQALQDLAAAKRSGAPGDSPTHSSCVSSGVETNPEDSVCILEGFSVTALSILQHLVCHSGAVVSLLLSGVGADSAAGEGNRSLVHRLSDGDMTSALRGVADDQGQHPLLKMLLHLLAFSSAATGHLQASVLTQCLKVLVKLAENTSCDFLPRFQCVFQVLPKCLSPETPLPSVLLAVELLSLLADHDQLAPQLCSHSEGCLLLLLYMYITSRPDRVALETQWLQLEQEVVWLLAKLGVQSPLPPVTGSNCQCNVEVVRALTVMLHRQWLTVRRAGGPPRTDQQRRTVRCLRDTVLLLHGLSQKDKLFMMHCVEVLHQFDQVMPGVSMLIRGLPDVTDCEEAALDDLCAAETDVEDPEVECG

For `CS(=O)(=O)c1cc(N2CCOCC2)nc2c(-c3cc[nH]n3)nccc12` [Example 32], the IC50 [1, 2] was 84.7 nM, the IC50 [1, 3] was 36.7 nM and the IC50 (NCI-H460 cells) was 1950 nM.

In the case of `c1cc(-c2nccc3c(N4C[C@@H]5C[C@H]4CO5)cc(N4CCOCC4)nc23)[nH]n1` [Example 185, 2-(morpholin-4-yl)-4-[(1S,4S)-2-oxa-5-azabicyclo[2.2.1]hept-5-yl]-8-(1H-pyrazol-5-yl)-1,7-naphthyridine], the IC50 [1, 2] is reported as 852 nM and the IC50 (HeLa cells; Homo sapiens, HeLa, 96 h, read-out: Inhibition of HeLa cell proliferation, HeLa cells, 4 days incubation, crystal violet) is reported as > 3000 nM.

`CCOP(C)(=O)c1cc(N2CCOC[C@H]2C)nc2c(-c3ccn[nH]3)nccc12` (stereo partly drawn) [Example 125, Ethyl methyl{2-[(3R)-3-methylmorpholin-4-yl]-8-(1H-pyrazol-5-yl)-1,7-naphthyridin-4-yl}phosphinate] was tested, and the IC50 [1, 2] was 17.2 nM, the IC50 (Caco-2 cells) was 2630 nM and the IC50 (DU145 cells) was 764 nM. The IC50 (NCI-H460 cells) was 541 nM.

With `CC(C)Oc1cc(N2CCOCC2)nc2c(-c3cc[nH]n3)nccc12` [Example 40, 4-isopropoxy-2-(morpholin-4-yl)-8-(1H-pyrazol-3-yl)-[1,7]naphthyridine] the IC50 [1, 2] was 125 nM, the IC50 [1, 3] was 99 nM and the IC50 (B16F10 cells) was > 3000 nM.

“5-fluoro-2-{2-[(3R)-3-methylmorpholin-4-yl]-8-(1H-pyrazol-5-yl)-1,7-naphthyridin-4-yl}aniline [Example 190]” gave an IC50 (HeLa cells; read-out: Inhibition of HeLa cell proliferation, HeLa cells, 4 days incubation, crystal violet) of 334 nM.

In the case of `O=S1(=O)CCCN1c1cc(N2CCOCC2)nc2c(-c3ccn[nH]3)nccc12` [Example 216, 4-(1,1-dioxido-1,2-thiazolidin-2-yl)-2-(morpholin-4-yl)-8-(1H-pyrazol-5-yl)-1,7-naphthyridine], the IC50 [1, 2] is reported as 84.4 nM, the IC50 (DU145 cells) is reported as 1330 nM and the IC50 (NCI-H460 cells) is reported as 1020 nM.

With `COC(=O)c1ccc(-c2cc(N3CCOC[C@H]3C)nc3c(-c4ccn[nH]4)nccc23)[nH]1` [Example 120, Methyl 5-{2-[(3R)-3-methylmorpholin-4-yl]-8-(1H-pyrazol-5-yl)-1,7-naphthyridin-4-yl}-1H-pyrrole-2-carboxylate] the IC50 [1, 2] was 13.1 nM.
